Data as given in PMC11702208 (RSC Advances, 2025).

Key:
KM12 = test: NCI cytotoxicity screen; assay type: cell-based, human
HS 578T = test: NCI cytotoxicity screen; assay type: cell-based, human
A549/ATCC = test: NCI cytotoxicity screen; assay type: cell-based, human
SK-MEL-2 = test: NCI cytotoxicity screen; assay type: cell-based, human
IGROV1 = test: NCI cytotoxicity screen; assay type: cell-based, human
SK-MEL-28 = test: NCI cytotoxicity screen; assay type: cell-based, human
MOLT-4 = test: NCI cytotoxicity screen; assay type: cell-based, human
OVCAR-3 = test: NCI cytotoxicity screen; assay type: cell-based, human
TK-10 = test: NCI cytotoxicity screen; assay type: cell-based, human
NCI-H226 = test: NCI cytotoxicity screen; assay type: cell-based, human
SF-539 = test: NCI cytotoxicity screen; assay type: cell-based, human
NCI-H23 = test: NCI cytotoxicity screen; assay type: cell-based, human
BT-549 = test: NCI cytotoxicity screen; assay type: cell-based, human
HOP-92 = test: NCI cytotoxicity screen; assay type: cell-based, human
HCT-15 = test: NCI cytotoxicity screen; assay type: cell-based, human
ACHN = test: NCI cytotoxicity screen; assay type: cell-based, human
RPMI-8226 = test: NCI cytotoxicity screen; assay type: cell-based, human
NCI-H322M = test: NCI cytotoxicity screen; assay type: cell-based, human
UO-31 = test: NCI cytotoxicity screen; assay type: cell-based, human
PC-3 = test: NCI cytotoxicity screen; assay type: cell-based, human; conditions: 10.0 μM one dose
U251 = test: NCI cytotoxicity screen; assay type: cell-based, human; conditions: U-251
M14 = test: NCI cytotoxicity screen; assay type: cell-based, human
CCRF-CEM = test: NCI cytotoxicity screen; assay type: cell-based, human
MDA-MB-468 = test: NCI cytotoxicity screen; assay type: cell-based, human
SNB-19 = test: NCI cytotoxicity screen; assay type: cell-based, human
SNB-75 = test: NCI cytotoxicity screen; assay type: cell-based, human; conditions: 10.0 μM one dose
OVCAR-4 = test: NCI cytotoxicity screen; assay type: cell-based, human
UACC-62 = test: NCI cytotoxicity screen; assay type: cell-based, human
SK-OV-3 = test: NCI cytotoxicity screen; assay type: cell-based, human; conditions: 10.0 μM one dose
HCT-116 = test: NCI cytotoxicity screen; assay type: cell-based, human
LOX IMVI = test: NCI cytotoxicity screen; assay type: cell-based, human
MDA-MB-231/ATCC = test: NCI cytotoxicity screen; assay type: cell-based, human
RXF 393 = test: NCI cytotoxicity screen; assay type: cell-based, human
MCF7 = test: NCI cytotoxicity screen; assay type: cell-based, human
CAKI-1 = test: NCI cytotoxicity screen; assay type: cell-based, human
SR = test: NCI cytotoxicity screen; assay type: cell-based, human
EKVX = test: NCI cytotoxicity screen; assay type: cell-based, human
NCI-H522 = test: NCI cytotoxicity screen; assay type: cell-based, human; conditions: 10.0 μM one dose
SK-MEL-5 = test: NCI cytotoxicity screen; assay type: cell-based, human
COLO 205 = test: NCI cytotoxicity screen; assay type: cell-based, human; conditions: 10.0 μM one dose; COLO-205
MDA-MB-435 = test: NCI cytotoxicity screen; assay type: cell-based, human
[1] = tested on: Colon cancer subpanel tumor cell lines; test: NCI cytotoxicity screen, subpanel; assay type: cell-based, human; conditions: subpanel value, Colon cancer
K-562 = test: cells; conditions: Homo sapiens, K562
HL-60(TB) = test: cells; conditions: Homo sapiens
[2] = tested on: Prostate cancer subpanel tumor cell lines; test: NCI cytotoxicity screen, subpanel; assay type: cell-based, human; conditions: subpanel value, Prostate cancer
NCI/ADR-RES = test: NCI cytotoxicity screen; assay type: cell-based, human; conditions: Homo sapiens, five-dose
[3] = tested on: NSC lung cancer subpanel tumor cell lines; test: NCI cytotoxicity screen, subpanel; assay type: cell-based, human; conditions: subpanel value, NSC lung cancer

SMILES: NS(=O)(=O)c1ccc(Cn2c(SCC(=O)NN=Cc3ccccc3O)nc3ccccc3c2=O)cc1 [Compound 6, 4-((2-((2-(2-(2-Hydroxybenzylidene)hydrazineyl)-2-oxoethyl)thio)-4-oxoquinazolin-3(4H)-yl)methyl)benzenesulfonamide]
- GI % (KM12; 10.0 μM one dose, KM-12): 61%
- GI % (HS 578T; 10.0 μM one dose, HS-578T): 29%
- GI % (A549/ATCC; 10.0 μM one dose, A549/ATCC): 31%
- GI % (SK-MEL-2; 10.0 μM one dose): 64%
- GI % (IGROV1; 10.0 μM one dose, IGROV1): 38%
- GI % (SK-MEL-28; 10.0 μM one dose): 43%
- GI % (MOLT-4; 10.0 μM one dose): 80%
- GI % (OVCAR-3; 10.0 μM one dose, IGROV-3): 87%
- GI % (TK-10; 10.0 μM one dose): 47%
- GI % (NCI-H226; 10.0 μM one dose): 43%
- GI % (SF-539; 10.0 μM one dose): 46%
- GI % (NCI-H23; 10.0 μM one dose): 37%
- GI % (BT-549; 10.0 μM one dose): 44%
- GI % (HOP-92; 10.0 μM one dose): 46%
- GI % (HCT-15; 10.0 μM one dose): 25%
- GI % (ACHN; 10.0 μM one dose): 28%
- GI % (RPMI-8226; 10.0 μM one dose): 51%
- GI % (NCI-H322M; 10.0 μM one dose): 53%
- GI % (UO-31; 10.0 μM one dose): 39%
- GI % (PC-3): 33%
- GI % (U251; 10.0 μM one dose): 57%
- GI % (M14; 10.0 μM one dose): 58%
- GI % (CCRF-CEM; 10.0 μM one dose): 77%
- GI % (MDA-MB-468; 10.0 μM one dose): 48%
- GI % (SNB-19; 10.0 μM one dose): 45%
- GI % (SNB-75): 15%
- GI % (OVCAR-4; 10.0 μM one dose, IGROV-4): 60%
- GI % (UACC-62; 10.0 μM one dose): 62%
- GI % (SK-OV-3): 37%
- GI % (HCT-116; 10.0 μM one dose): 58%
- GI % (LOX IMVI; 10.0 μM one dose): 84%
- GI % (MDA-MB-231/ATCC; 10.0 μM one dose, MDA-MB-231/ATCC): 70%
- GI % (RXF 393; 10.0 μM one dose): 28%
- GI % (MCF7; 10.0 μM one dose, MCF-7): 50%
- GI % (CAKI-1; 10.0 μM one dose): 46%
- GI % (SR; 10.0 μM one dose): 76%
- GI % (EKVX; 10.0 μM one dose): 40%
- GI % (NCI-H522): 101%
- GI % (SK-MEL-5; 10.0 μM one dose): 42%
- GI % (COLO 205): 71%
- GI % (MDA-MB-435; 10.0 μM one dose): 29%

SMILES: COc1cc2ncnc(Nc3ccc(F)c(Cl)c3)c2cc1OCCCN1CCOCC1 [Gefitinib, reference compound]
- GI50 (KM12; Homo sapiens, KM12): 7.94 µM
- GI50 ([1]; Homo sapiens): 5.2 µM
- GI50 [1]: 5.23 µM
- TGI [1]: 18.47 µM
- GI50 (HS 578T; Homo sapiens, Hs-578T): 10 µM
- GI50 (A549/ATCC; Homo sapiens, A549): 7.94 µM
- GI50 (SK-MEL-2; Homo sapiens): 12.6 µM
- GI50 (IGROV1; Homo sapiens, IGROV-1): 0.2 µM
- GI50 (SK-MEL-28; Homo sapiens): 0.31 µM
- GI50 (MOLT-4; Homo sapiens): 3.98 µM
- GI50 (OVCAR-3; Homo sapiens, OVCAR-3): 5.01 µM
- GI50 (TK-10; Homo sapiens): 0.1 µM
- GI50 (K-562): 2.51 µM
- GI50 (NCI-H226; Homo sapiens): 15.8 µM
- GI50 (SF-539; Homo sapiens): 10 µM
- GI50 (NCI-H23; Homo sapiens): 15.8 µM
- GI50 (BT-549; Homo sapiens): 7.94 µM
- GI50 (HOP-92; Homo sapiens): 7.94 µM
- GI50 (HCT-15; Homo sapiens): 5.01 µM
- GI50 (ACHN; Homo sapiens): 0.2 µM
- GI50 (HL-60(TB)): 5.01 µM
- GI50 (RPMI-8226; Homo sapiens): 1.58 µM
- GI50 ([2]; Homo sapiens): 3.3 µM
- GI50 [2]: 3.29 µM
- TGI [2]: 31.62 µM
- GI50 (NCI-H322M; Homo sapiens): 0.08 µM
- GI50 (UO-31; Homo sapiens): 1.25 µM
- GI50 (NCI/ADR-RES): 12.6 µM
- GI50 (U251; Homo sapiens): 10 µM
- GI50 (M14; Homo sapiens): 5.01 µM
- GI50 (CCRF-CEM; Homo sapiens): 5.01 µM
- GI50 (MDA-MB-468; Homo sapiens): 0.01 µM
- GI50 (SNB-19; Homo sapiens): 12.6 µM
- GI50 ([3]; Homo sapiens): 2.1 µM
- GI50 [3]: 2.05 µM
- TGI [3]: 13.86 µM
- GI50 (OVCAR-4; Homo sapiens, OVCAR-4): 7.94 µM
- GI50 (UACC-62; Homo sapiens): 5.01 µM
- GI50 (HCT-116; Homo sapiens): 7.94 µM
- GI50 (LOX IMVI; Homo sapiens): 7.94 µM
- GI50 (MDA-MB-231/ATCC; Homo sapiens, MDA-MB-231): 12.6 µM
- GI50 (RXF 393; Homo sapiens): 5.01 µM
- GI50 (MCF7; Homo sapiens, MCF7): 10 µM
- GI50 (CAKI-1; Homo sapiens): 0.16 µM
- GI50 (SR; Homo sapiens): 3.16 µM
- GI50 (EKVX; Homo sapiens): 0.005 µM
- GI50 (SK-MEL-5; Homo sapiens): 3.98 µM
- GI50 (MDA-MB-435; Homo sapiens): 3.16 µM
